Source: US10836775B2, “6,6-fused heteroaryl piperidine ether allosteric modulators of the M4 muscarinic acetylcholine receptor” (Merck Sharp & Dohme Corp., priority 2016, dated 2020)

Biological target: T1, human M4 muscarinic acetylcholine receptor (Homo sapiens, UniProt P08173)
T1 construct: expressed in transfected cells; host or cells: CHO-K1
T1 sequence (P08173 1-479): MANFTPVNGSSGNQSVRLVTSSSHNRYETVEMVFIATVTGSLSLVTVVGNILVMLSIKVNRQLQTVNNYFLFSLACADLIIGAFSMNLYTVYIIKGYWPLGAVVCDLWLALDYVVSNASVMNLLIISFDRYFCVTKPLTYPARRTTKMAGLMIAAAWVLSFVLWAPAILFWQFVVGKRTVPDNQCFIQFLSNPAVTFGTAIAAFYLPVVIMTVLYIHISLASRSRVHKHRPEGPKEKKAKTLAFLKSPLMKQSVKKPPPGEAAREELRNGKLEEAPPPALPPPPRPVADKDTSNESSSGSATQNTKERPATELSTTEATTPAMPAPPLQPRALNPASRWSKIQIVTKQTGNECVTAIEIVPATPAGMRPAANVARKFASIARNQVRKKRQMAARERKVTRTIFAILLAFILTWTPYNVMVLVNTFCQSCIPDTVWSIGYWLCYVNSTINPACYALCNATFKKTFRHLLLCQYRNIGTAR
Assay: human FLIPR-based M4 PAM assay (CHO-K1 cells, human M4 receptor and Gαqi5, calcium dye fluorescence, acetylcholine at 20% of maximum)
Format: cell-based
Details: inflection point (IP) of 4 parameter logistic dose response curve; CHO-K1 cells with human M4 receptor and Gαqi5; FLIPR Tetra
Protocol: In a typical experiment the M4 muscarinic acetylcholine receptor modulating activity of the compounds of the present invention was determined in accordance with the following experimental method. […] On the day of assay, growth medium is removed, the cells are washed 2 times with wash buffer, and cells are incubated in dye loading buffer at 37° C., 5% CO2 for ˜1 hour. […] Next, 10 uL of acetylcholine is added (final concentration calculated so as to achieve 20% of the maximum acetycholine response), and the fluorescence reading is continued for 3.5 min. In some cases, a third addition of acetylcholine (final concentration calculated to achieve 70% of the maximal acetylcholine response) is performed. The resulting dose response curves are fit to a 4 parameter logistic equation and the final result is determined as the inflection point (IP) of the curve
CHO-K1 cells stably transfected with human M4 receptor and chimeric G-protein Gαqi5 are thawed from liquid N2 storage, resuspended in growth medium, plated in black, clear bottom 384 well plates, and incubated 16-20 hours at 37° C., 5% CO2.
On the day of assay, growth medium is removed, the cells are washed 2 times with wash buffer, and cells are incubated in dye loading buffer at 37° C., 5% CO2 for ˜1 h. […] Next, 10 uL of acetylcholine is added (final concentration calculated so as to achieve 20% of the maximum acetycholine response), and the fluorescence reading is continued for 3.5 min. In some cases, a third addition of acetylcholine (final concentration calculated to achieve 70% of the maximal acetylcholine response) is performed.

| SMILES | EC50 [nM] |
| --- | --- |
| Cc1cc2c(=O)[nH]cnc2nc1N1CCC(Oc2cccc(C#N)c2)CC1 [Example 15, 3-((1-(6-methyl-4-oxo-3,4-dihydropyrido[2,3-d]pyrimidin-7-yl)piperidin-4-yl)oxy)benzonitrile] | 23 |
| COc1ccc(OC2CCN(c3nc4occc(=O)c4cc3C)CC2)cn1 [Example 35, 7-(4-((6-methoxypyridin-3-yl)oxy)piperidin-1-yl)-6-methyl-4H-pyrano[2,3-b]pyridin-4-one] | 38 |
| COc1ccc(OC2CCN(c3nc4c(cc3C)CCNC4=O)CC2)cn1 [Example 46, 2-(4-((6-Methoxypyridin-3-yl)oxy)piperidin-1-yl)-3-methyl-6,7-dihydro-1,7-naphthyridin-8(51H)-one] | 587 |
| Cc1cc2c(=O)[nH]cnc2nc1N1CCC(OCC2CC2)CC1 [Example 17, 7-(4-(cyclopropyl-methoxy)piperidin-1-yl)-6-methylpyrido[2,3-d]pyrimidin-4(3H)-one] | 121 |
| COc1ccc(OC2CCN(c3nc4[nH]c(=O)n(C)c(=O)c4cc3C)CC2)cn1 [Example 6, 7-(4-((6-Methoxypyridin-3-yl)oxy)piperidin-1-yl)-3,6-dimethylpyrido[2,3-d]pyrimidine-2,4(1H,3H)-dione] | 59 |
| COc1ccc(OC2CCN(c3nc4cnn(CCO)c(=O)c4cc3C)CC2)cn1 [Example 42, 6-(2-Hydroxyethyl)-2-(4-((6-methoxypyridin-3-yl)oxy)piperidin-1-yl)-3-methylpyrido[2,3-d]pyridazin-5(6H)-one] | 110 |
| COc1ccc(OC2CCN(c3nc4c(=O)[nH][nH]c(=O)c4cc3C)CC2)cn1 [Example 53, 2-(4-((6-Methoxypyridin-3-yl)oxy)piperidin-1-yl)-3-methyl-6,7-dihydropyrido[2,3-d]pyridazine-5,8-dione] | 260 |
| COc1ccc(OC2CCN(c3nc4oc(C)cc(=O)c4cc3C)CC2)cn1 [Example 41, 7-(4-((6-methoxypyridin-3-yl)oxy)piperidin-1-yl)-2,6-dimethyl-4H-pyrano[2,3-b]pyridin-4-one] | 100 |
| Cc1cc2c(=O)[nH]c(=O)[nH]c2nc1N1CCC(OCC2CC2)CC1 [Example 33, 7-(4-(cyclopropyl-methoxy)piperidin-1-yl)-6-methylpyrido[2,3-d]pyrimidine-2,4(1H,3H)-dione] | 52 |
| COc1ccc(OC2CCN(c3nc4cc[nH]c(=O)c4cc3C)CC2)cn1 [Example 12, 2-(4-((6-methoxypyridin-3-yl)oxy)piperidin-1-yl)-3-methyl-1,6-naphthyridin-5(6H)-one] | 114 |
| Cc1cc2c(=O)[nH]c(=O)[nH]c2nc1N1CCC(OCC2CCCCC2)CC1 [Example 34, 7-(4-(cyclohexyl-methoxy)piperidin-1-yl)-6-methylpyrido[2,3-d]pyrimidine-2,4(1H,3H)-dione] | 361 |
| Cc1cc2c(=O)[nH]cnc2nc1N1CCC(Oc2ccccc2)CC1 [Example 14, 6-methyl-7-(4-phenoxypiperidin-1-yl)pyrido[2,3-d]pyrimidin-4(3H)-one] | 80 |
| COc1ccc(CN2CCc3nc(N4CCC(Oc5ccc(OC)nc5)CC4)c(C)cc3C2=O)cc1 [Example 2, 6-(4-methoxybenzyl)-2-(4-((6-methoxypyridin-3-yl)oxy)piperidin-1-yl)-3-methyl-7,8-dihydro-1,6-naphthyridin-5(6H)-one] | 988 |
| COc1ccc(OC2CCN(c3nc4ccoc(=O)c4cc3C)CC2)cn1 [Example 54, 2-(4-((6-Methoxypyridin-3-yl)oxy)piperidin-1-yl)-3-methyl-5H-pyrano[4,3-b]pyridin-5-one] | 85 |
| COc1ccc(OC2CCN(c3nc4[nH]c(=N)[nH]c(=O)c4cc3C)CC2)cn1 [Example 50, 2-Imino-7-(4-((6-methoxypyridin-3-yl)oxy)piperidin-1-yl)-6-methyl-2,3-dihydropyrido[2,3-d]pyrimidin-4(1H)-one] | 469 |
| COc1ccc(OC2CCN(c3nc4c(cc3C)C(=O)NCC4)CC2)cn1 [Example 1, 2-(4-((6-Methoxypyridin-3-yl)oxy)piperidin-1-yl)-3-methyl-7,8-dihydro-1,6-naphthyridin-5(6H)-one] | 393 |
| Cc1cc2c(=O)[nH]c(=O)[nH]c2nc1N1CCC(OCC2CCCC2)CC1 [Example 38, 7-(4-(cyclopentyl-methoxy)piperidin-1-yl)-6-methylpyrido[2,3-d]pyrimidine-2,4(1H,3H)-dione] | 112 |
| COc1ccc(OC2CCN(c3nc4oc(=O)[nH]c(=O)c4cc3C)CC2)cn1 [Example 52, 7-(4-((6-Methoxypyridin-3-yl)oxy)piperidin-1-yl)-6-methyl-2H-pyrido[3,2-e][1,3]oxazine-2,4(3H)-dione] | 15 |
| COc1ccc(OC2CCN(c3nc4[nH]c(=O)[nH]c(=O)c4cc3C)CC2)cn1 [Example 8, 7-(4-((6-Methoxypyridin-3-yl)oxy)piperidin-1-yl)-6-methylpyrido[2,3-d]pyrimidine-2,4(1H,3H)-dione] | 18 |
| Cc1cc2c(=O)[nH]c(=O)[nH]c2nc1N1CCC(Oc2cccc(C#N)c2)CC1 [Example 7, 3-((1-(6-methyl-2,4-dioxo-1,2,3,4-tetrahydro-pyrido[2,3-d]pyrimidin-7-yl)piperidin-4-yl)oxy)benzonitrile] | 41 |
| COc1ccc(OC2CCN(c3nc4c(cc3C)C(=O)N(C)CC4)CC2)cn1 [Example 4, 2-(4-((6-methoxypyridin-3-yl)oxy)piperidin-1-yl)-3,6-dimethyl-7,8-dihydro-1,6-naphthyridin-5(6H)-one] | 431 |

The remaining lines, values ahead:

| EC50 [nM] | SMILES |
| --- | --- |
| 61 | COc1ccc(OC2CCN(c3nc4cnn(C)c(=O)c4cc3C)CC2)cn1 [Example 13, 2-(4-((6-methoxypyridin-3-yl)oxy)piperidin-1-yl)-3,6-dimethylpyrido[2,3-d]pyridazin-5(6H)-one] |
| 158 | Cc1cc2c(=O)[nH]ncc2nc1N1CCC(Oc2cnn(C)c2)CC1 [Example 23, 3-methyl-2-(4-((1-methyl-1H-pyrazol-4-yl)oxy)piperidin-1-yl)pyrido[2,3-d]pyridazin-5(6H)-one] |
| 22 | COc1ccc(OC2CCN(c3nc4cn[nH]c(=O)c4cc3C)CC2)cn1 [Example 11, 2-(4-((6-methoxypyridin-3-yl)oxy)piperidin-1-yl)-3-methylpyrido[2,3-d]pyridazin-5(6H)-one] |
| 546 | COCCc1nc2nc(N3CCC(Oc4ccc(OC)nc4)CC3)c(C)cc2c(=O)[nH]1 [Example 30, 2-(2-methoxyethyl)-7-(4-((6-methoxypyridin-3-yl)oxy)piperidin-1-yl)-6-methylpyrido[2,3-d]pyrimidin-4(3H)-one] |
| 74 | COc1ccc(OC2CCN(c3nc4nc(C)[nH]c(=O)c4cc3C)CC2)cn1 [Example 19, 7-(4-((6-methoxypyridin-3-yl)oxy)piperidin-1-yl)-2,6-dimethylpyrido[2,3-d]pyrimidin-4(3H)-one] |
| 34 | COc1ccc(OC2CCN(c3nc4nc[nH]c(=O)c4cc3C)CC2)cn1 [Example 10, 7-(4-((6-methoxypyridin-3-yl)oxy)piperidin-1-yl)-6-methylpyrido[2,3-d]pyrimidin-4(3H)-one] |
| 494 | Cc1nc2nc(N3CCC(Oc4cnn(C)c4)CC3)c(C)cc2c(=O)[nH]1 [Example 27, 2,6-dimethyl-7-(4-((1-methyl-1H-pyrazol-4-yl)oxy)piperidin-1-yl)pyrido[2,3-d]pyrimidin-4(3H)-one] |
| 135 | COc1ccc(OC2CCN(c3nc4ncn(C)c(=O)c4cc3C)CC2)cn1 [Example 44, 7-(4-((6-Methoxypyridin-3-yl)oxy)piperidin-1-yl)-3,6-dimethylpyrido[2,3-d]pyrimidin-4(3H)-one] |
| 32 | COCc1nc2nc(N3CCC(Oc4cccc(C#N)c4)CC3)c(C)cc2c(=O)[nH]1 [Example 39, 3-((1-(2-(methoxymethyl)-6-methyl-4-oxo-3,4-dihydropyrido[2,3-d]pyrimidin-7-yl)piperidin-4-yl)oxy)benzonitrile] |
| 140 | COc1ccc(OC2CCN(c3nc4nc(CO)[nH]c(=O)c4cc3C)CC2)cn1 [Example 9, 2-(Hydroxymethyl)-7-(4-((6-methoxypyridin-3-yl)oxy)piperidin-1-yl)-6-methylpyrido[2,3-d]pyrimidin-4(3H)-one] |
| 158 | Cc1nc2nc(N3CCC(Oc4cnc5c(c4)COC5)CC3)c(C)cc2c(=O)[nH]1 [Example 22, 7-(4-((5,7-dihydrofuro[3,4-b]pyridin-3-yl)oxy)piperidin-1-yl)-2,6-dimethylpyrido[2,3-d]pyrimidin-4(3H)-one] |
